HELM strings list units from the 5' end as sugar, base in round brackets, then linkage (d deoxyribose, r ribose, m 2'-O-methyl, p phosphodiester). Strings are as the collection lists them; they lack the last nucleoside at the 3' end of the tested compound. [moe] = 2'-O-(2-methoxyethyl) (MOE); [sp] = phosphorothioate linkage; [m5C] = 5-methylcytosine
Molecular target: UBE3A-ATS
Assay: mouse, dose not given
Conditions: ASO

**Q.** How did the 3 h FOB score turn out when “RNA1{[moe]([m5C])[sp].[moe](T)p.[moe]([m5C])p.[moe](A)p.[moe](G)p.d(T)[sp].d(T)[sp].d(A)[sp].d(G)[sp].d(G)[sp].d(T)[sp].d(T)[sp].d(A)[sp].d(G)[sp].d(T)[sp].[moe](G)p.[moe]([m5C])p.[moe](A)[sp].[moe]([m5C])}$$$$ (last 3' nucleoside missing)” was run?
**A.** 6 score 0-7

**Q.** “RNA1{[moe]([m5C])[sp].[moe](T)p.[moe]([m5C])p.[moe](A)p.d(G)[sp].d(T)[sp].d(T)[sp].d(A)[sp].d(G)[sp].d(G)[sp].d(T)[sp].d(T)[sp].d(A)[sp].d(G)[sp].[moe](T)p.[moe](G)p.[moe]([m5C])p.[moe](A)[sp].[moe]([m5C])}$$$$ (last 3' nucleoside missing)” was tested. Which 3 h FOB score did it give?
**A.** 4 score 0-7

**Q.** Which 3 h FOB score does the source give for “RNA1{[moe]([m5C])[sp].[moe](T)p.[moe]([m5C])p.[moe]([m5C])p.[moe](A)p.d(G)[sp].d(T)[sp].d(T)[sp].d(T)[sp].d(T)[sp].d([m5C])[sp].d(G)[sp].d([m5C])[sp].d([m5C])[sp].d([m5C])[sp].[moe](G)p.[moe](T)p.[moe](T)[sp].[moe](A)}$$$$ (last 3' nucleoside missing)” here?
**A.** 3.3 score 0-7

**Q.** For “RNA1{[moe]([m5C])[sp].[moe]([m5C])p.[moe](A)p.[moe](A)p.[moe](T)p.d(A)[sp].d(T)[sp].d(T)[sp].d(T)[sp].d(T)[sp].d(G)[sp].d(A)[sp].d([m5C])[sp].d(T)[sp].d(A)[sp].[moe](G)p.[moe](T)p.[moe](T)[sp].[moe]([m5C])}$$$$ (last 3' nucleoside missing)”, which 3 h FOB score is on record?
**A.** 4.2 score 0-7

**Q.** For “RNA1{[moe]([m5C])[sp].[moe]([m5C])p.[moe](A)p.[moe](A)p.[moe]([m5C])p.d(T)[sp].d(T)[sp].d([m5C])[sp].d(A)[sp].d(T)[sp].d([m5C])[sp].d(A)[sp].d(A)[sp].d(T)[sp].d(A)[sp].[moe](T)p.[moe](T)p.[moe](T)[sp].[moe]([m5C])}$$$$ (last 3' nucleoside missing)”, which 3 h FOB score is on record?
**A.** 0 score 0-7

**Q.** How did the 3 h FOB score turn out when “RNA1{[moe]([m5C])[sp].[moe]([m5C])p.[moe](A)p.[moe](G)p.[moe](G)p.d(T)[sp].d(G)[sp].d(T)[sp].d([m5C])[sp].d(T)[sp].d(T)[sp].d(A)[sp].d(T)[sp].d(A)[sp].d(T)[sp].[moe]([m5C])p.[moe](T)p.[moe](A)[sp].[moe](T)}$$$$ (last 3' nucleoside missing)” was run?
**A.** 1 score 0-7

**Q.** For “RNA1{[moe]([m5C])[sp].[moe]([m5C])p.[moe](A)p.[moe](G)p.[moe](T)p.d(T)[sp].d(T)[sp].d(T)[sp].d([m5C])[sp].d(G)[sp].d([m5C])[sp].d([m5C])[sp].d([m5C])[sp].d(G)[sp].d(T)[sp].[moe](T)p.[moe](A)p.[moe]([m5C])[sp].[moe]([m5C])}$$$$ (last 3' nucleoside missing)”, which 3 h FOB score is on record?
**A.** 4.5 score 0-7

**Q.** “RNA1{[moe]([m5C])[sp].[moe]([m5C])p.[moe](A)p.[moe](G)p.[moe]([m5C])p.d([m5C])[sp].d(A)[sp].d(G)[sp].d(G)[sp].d(T)[sp].d(G)[sp].d(T)[sp].d([m5C])[sp].d(T)[sp].d(T)[sp].[moe](A)p.[moe](T)p.[moe](A)[sp].[moe](T)}$$$$ (last 3' nucleoside missing)” was tested. Which 3 h FOB score did it give?
**A.** 3.8 score 0-7

**Q.** “RNA1{[moe]([m5C])[sp].[moe]([m5C])p.[moe](A)p.[moe](T)p.[moe](T)p.d(T)[sp].d(T)[sp].d(G)[sp].d(A)[sp].d([m5C])[sp].d([m5C])[sp].d(T)[sp].d(T)[sp].d([m5C])[sp].d(T)[sp].[moe](T)p.[moe](A)p.[moe](G)[sp].[moe]([m5C])}$$$$ (last 3' nucleoside missing)” was tested. Which 3 h FOB score did it give?
**A.** 1 score 0-7

**Q.** For “RNA1{[moe]([m5C])[sp].[moe]([m5C])p.[moe](A)p.[moe](T)p.[moe](T)p.d([m5C])[sp].d(A)[sp].d(G)[sp].d([m5C])[sp].d(A)[sp].d([m5C])[sp].d(T)[sp].d(T)[sp].d(A)[sp].d(G)[sp].[moe](G)p.[moe](T)p.[moe](A)[sp].[moe](G)}$$$$ (last 3' nucleoside missing)”, which 3 h FOB score is on record?
**A.** 3.7 score 0-7

**Q.** For “RNA1{[moe]([m5C])[sp].[moe]([m5C])p.[moe](A)p.[moe]([m5C])p.[moe](A)p.d([m5C])[sp].d(A)[sp].d(T)[sp].d(A)[sp].d(T)[sp].d(A)[sp].d(G)[sp].d(G)[sp].d([m5C])[sp].d(T)[sp].[moe](A)p.[moe](G)p.[moe]([m5C])[sp].[moe]([m5C])}$$$$ (last 3' nucleoside missing)”, which 3 h FOB score is on record?
**A.** 1 score 0-7

**Q.** How did the 3 h FOB score turn out when “RNA1{[moe]([m5C])[sp].[moe]([m5C])p.[moe](T)p.[moe](A)p.[moe](T)p.d(A)[sp].d(G)[sp].d(G)[sp].d(T)[sp].d(G)[sp].d(G)[sp].d([m5C])[sp].d([m5C])[sp].d(T)[sp].d(T)[sp].[moe]([m5C])p.[moe](A)p.[moe](G)[sp].[moe](T)}$$$$ (last 3' nucleoside missing)” was run?
**A.** 5 score 0-7

**Q.** For “RNA1{[moe]([m5C])[sp].[moe]([m5C])p.[moe](T)p.[moe](T)p.[moe](T)p.d([m5C])[sp].d(T)[sp].d(A)[sp].d(T)[sp].d(T)[sp].d(T)[sp].d([m5C])[sp].d(A)[sp].d(G)[sp].d(A)[sp].[moe]([m5C])p.[moe]([m5C])p.[moe](G)[sp].[moe](A)}$$$$ (last 3' nucleoside missing)”, which 3 h FOB score is on record?
**A.** 2.3 score 0-7

**Q.** For “RNA1{[moe]([m5C])[sp].[moe]([m5C])p.[moe](T)p.[moe]([m5C])p.[moe](T)p.d(T)[sp].d([m5C])[sp].d([m5C])[sp].d(A)[sp].d(A)[sp].d(A)[sp].d(A)[sp].d(T)[sp].d(T)[sp].d([m5C])[sp].[moe](T)p.[moe]([m5C])p.[moe](A)[sp].[moe]([m5C])}$$$$ (last 3' nucleoside missing)”, which 3 h FOB score is on record?
**A.** 0 score 0-7

**Q.** With “RNA1{[moe]([m5C])[sp].[moe]([m5C])p.[moe]([m5C])p.[moe](A)p.[moe](T)p.d(T)[sp].d(A)[sp].d(G)[sp].d(A)[sp].d([m5C])[sp].d([m5C])[sp].d([m5C])[sp].d(A)[sp].d(T)[sp].d(G)[sp].[moe](G)p.[moe]([m5C])p.[moe](T)[sp].[moe]([m5C])}$$$$ (last 3' nucleoside missing)” as the substance, how does the 3 h FOB score read?
**A.** 7 score 0-7

**Q.** “RNA1{[moe]([m5C])[sp].[moe]([m5C])p.[moe]([m5C])p.[moe](A)p.[moe](T)p.d(T)[sp].d([m5C])[sp].d(A)[sp].d(G)[sp].d([m5C])[sp].d(A)[sp].d([m5C])[sp].d(T)[sp].d(T)[sp].d(A)[sp].[moe](G)p.[moe](G)p.[moe](T)[sp].[moe](A)}$$$$ (last 3' nucleoside missing)” was tested. Which 3 h FOB score did it give?
**A.** 4.8 score 0-7

Source: the OligoGym collection
